Test results from ChEMBL document CHEMBL3882724 (2013).

Legend:
[1] = biological target: T1, CYP21 (steroid 21-hydroxylase) (Homo sapiens, UniProt P08686); assay: Inhibition of human CYP21 transfected in HEK293 cells assessed as decrease in conversion of progesterone to 11-deoxycorticosterone at 100 nM preincubated for 5 hrs followed by progesterone addition measured after 20 hrs by ELISA relative to control; format: cell-based; details: HEK293 cells transfected with human CYP21, probe progesterone
T1 sequence (P08686 whole entry): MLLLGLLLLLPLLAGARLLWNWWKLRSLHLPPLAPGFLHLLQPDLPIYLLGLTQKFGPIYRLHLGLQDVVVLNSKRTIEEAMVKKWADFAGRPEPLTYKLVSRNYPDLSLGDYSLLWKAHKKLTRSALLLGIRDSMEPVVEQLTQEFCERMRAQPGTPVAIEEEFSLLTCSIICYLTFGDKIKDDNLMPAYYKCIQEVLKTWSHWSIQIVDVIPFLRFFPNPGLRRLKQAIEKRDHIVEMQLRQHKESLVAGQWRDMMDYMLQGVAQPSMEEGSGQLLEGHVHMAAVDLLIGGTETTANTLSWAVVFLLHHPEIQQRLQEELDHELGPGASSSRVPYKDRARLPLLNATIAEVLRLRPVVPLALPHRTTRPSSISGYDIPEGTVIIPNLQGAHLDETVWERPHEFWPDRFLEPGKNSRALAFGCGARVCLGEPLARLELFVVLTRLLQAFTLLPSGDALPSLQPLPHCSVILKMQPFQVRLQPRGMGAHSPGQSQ

[2] = Half life in human liver microsomes at 1 uM by LC-MS/MS analysis
[3] = biological target: T2, CYP11B (Rattus norvegicus, UniProt P15393+P30099); assay: Inhibition of Sprague-Dawley rat adrenal mitochondrial CYP11B assessed as decrease in conversion of 11-deoxycortisol to cortisol at 100 nM incubated for 60 mins by ELISA relative to control; format: protein assay; details: adrenal mitochondria, probe 11-deoxycortisol
T2 sequence (P30099 whole entry): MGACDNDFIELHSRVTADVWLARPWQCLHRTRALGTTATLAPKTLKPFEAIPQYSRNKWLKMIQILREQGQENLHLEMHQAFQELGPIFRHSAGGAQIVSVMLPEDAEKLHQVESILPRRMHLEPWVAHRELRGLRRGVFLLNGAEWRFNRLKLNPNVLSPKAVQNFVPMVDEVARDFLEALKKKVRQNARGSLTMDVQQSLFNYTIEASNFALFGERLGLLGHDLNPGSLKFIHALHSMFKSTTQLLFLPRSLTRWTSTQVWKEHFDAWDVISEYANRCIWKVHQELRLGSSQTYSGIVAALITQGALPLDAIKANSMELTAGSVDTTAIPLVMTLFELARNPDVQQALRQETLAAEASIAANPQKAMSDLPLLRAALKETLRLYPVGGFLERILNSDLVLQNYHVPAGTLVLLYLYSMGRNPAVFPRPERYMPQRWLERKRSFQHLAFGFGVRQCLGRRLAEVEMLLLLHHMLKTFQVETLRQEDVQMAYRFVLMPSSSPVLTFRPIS
T2 sequence (P15393 whole entry): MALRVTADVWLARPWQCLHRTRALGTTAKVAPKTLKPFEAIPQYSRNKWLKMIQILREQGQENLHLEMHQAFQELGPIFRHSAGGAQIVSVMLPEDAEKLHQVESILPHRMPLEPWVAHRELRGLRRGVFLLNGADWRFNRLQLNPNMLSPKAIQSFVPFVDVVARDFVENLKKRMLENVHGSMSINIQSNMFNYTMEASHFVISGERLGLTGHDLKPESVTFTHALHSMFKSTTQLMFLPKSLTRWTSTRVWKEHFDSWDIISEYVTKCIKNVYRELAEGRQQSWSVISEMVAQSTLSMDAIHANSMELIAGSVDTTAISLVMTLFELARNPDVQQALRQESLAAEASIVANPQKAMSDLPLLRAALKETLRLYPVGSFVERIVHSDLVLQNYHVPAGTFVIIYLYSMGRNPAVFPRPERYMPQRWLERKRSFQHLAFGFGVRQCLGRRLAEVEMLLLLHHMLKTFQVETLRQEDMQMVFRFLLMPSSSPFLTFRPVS

[4] = biological target: T3, Steroid 17-alpha-hydroxylase/17,20 lyase (Homo sapiens, UniProt P05093); assay: Inhibition of CYP17 in human testicular microsomes using 17alpha-hydroxypregnenolone as substrate assessed as decrease in DHEA levels at 10 nM after 90 mins by ELISA relative to control; set-up: species or system Testis; details: 1.5 h
T3 sequence (P05093 whole entry): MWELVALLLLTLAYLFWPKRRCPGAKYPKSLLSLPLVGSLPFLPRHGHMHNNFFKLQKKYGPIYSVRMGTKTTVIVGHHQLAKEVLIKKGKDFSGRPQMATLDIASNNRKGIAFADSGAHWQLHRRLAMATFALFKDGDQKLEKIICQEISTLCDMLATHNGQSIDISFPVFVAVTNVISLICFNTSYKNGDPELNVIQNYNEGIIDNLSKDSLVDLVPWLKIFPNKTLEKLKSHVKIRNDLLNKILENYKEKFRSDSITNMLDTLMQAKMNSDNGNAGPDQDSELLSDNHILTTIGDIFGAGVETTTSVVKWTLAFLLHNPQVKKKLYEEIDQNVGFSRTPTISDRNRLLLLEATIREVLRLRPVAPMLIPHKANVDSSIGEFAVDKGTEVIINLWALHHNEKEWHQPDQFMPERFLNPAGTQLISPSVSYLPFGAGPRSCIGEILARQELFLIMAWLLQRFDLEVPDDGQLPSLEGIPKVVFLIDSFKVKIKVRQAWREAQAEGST

[5] = biological target: T3, Steroid 17-alpha-hydroxylase/17,20 lyase; assay: Inhibition of CYP17 in human testicular microsomes using 17alpha-hydroxypregnenolone as substrate assessed as decrease in DHEA levels after 90 mins by ELISA; set-up: species or system Testis
[6] = biological target: T1, CYP21 (steroid 21-hydroxylase); assay: Inhibition of human CYP21 transfected in HEK293 cells assessed as decrease in conversion of progesterone to 11-deoxycorticosterone preincubated for 5 hrs followed by progesterone addition measured after 20 hrs by ELISA; format: cell-based; set-up: concentration or dose not given beside the values; details: HEK293 cells transfected with human CYP21, probe progesterone
[7] = biological target: T3, Steroid 17-alpha-hydroxylase/17,20 lyase; assay: Inhibition of CYP17 in human testicular microsomes using 17alpha-hydroxypregnenolone as substrate assessed as decrease in DHEA levels at 1 nM after 90 mins by ELISA relative to control; set-up: species or system Testis
[8] = Half life in rat liver microsomes at 1 uM by LC-MS/MS analysis
[9] = biological target: T3, Steroid 17-alpha-hydroxylase/17,20 lyase; assay: Inhibition of CYP17 in human H295R cells assessed as decrease in testosterone levels after 24 hrs by ELISA; format: cell-based

SMILES	inhibition at 20 h, 0.1 µM [1]	half-life at 1 µM [2]	inhibition at 1 h, 0.1 µM [3]	inhibition at 0.01 µM [4]	IC50 [5]	inhibition at 20 h [6]	IC50 [7]	half-life at 1 µM [8]	IC50 [9]
CN1CC[C@@]2(C)C(=CC1=O)CC[C@H]1C3=CC=C(c4cccnc4)[C@@]3(C)CC[C@@H]12	≥ 30%	1 to 50 min	< 32%	≥ 80%	≤ 0.011 µM	–	–	–	–
CO/N=C1/C=C2CC[C@H]3C4=CC=C(c5cccnc5)[C@@]4(C)CC[C@@H]3[C@@]2(C)CC1	≥ 30%	≥ 50 min	–	–	≤ 0.011 µM	10 to 50%	> 0.1 µM	–	–
C[C@]12CC[C@H]3[C@@H](CCC4=CC(=O)CC[C@@]43C)C1=CC=C2c1cccnc1	≥ 30%	1 to 50 min	–	≥ 80%	≤ 0.011 µM	–	–	1 to 10 min	–
C[C@]12CC[C@H]3[C@@H](CC[C@H]4CC(=O)CC[C@@]43C)C1=CC=C2c1cccnc1	≥ 30%	1 to 50 min	≥ 50%	≥ 80%	≤ 0.011 µM	–	–	–	–
CCNC(=O)N[C@@H]1CC[C@@]2(C)C(=CC[C@@H]3[C@@H]2CC[C@]2(C)C(n4ccnc4)=CC[C@@H]32)C1	< 30%	1 to 50 min	≥ 50%	–	–	≥ 50%	–	–	–
C[C@]12CCNC(=O)C=C1CC[C@@H]1[C@@H]2CC[C@]2(C)C(n3ccnn3)=CC[C@@H]12	< 30%	≥ 50 min	–	≥ 80%	–	–	–	1 to 10 min	–
CCc1cncc(C2=CC[C@H]3[C@@H]4CCC5=CC(=O)NCC[C@]5(C)[C@H]4CC[C@]23C)c1	< 30%	10 to 60 min	–	≥ 80%	≤ 0.011 µM	–	–	10 to 60 min	–
C[C@]12CC[C@H]3[C@@H](CC[C@H]4CC(=O)NCC[C@@]43C)C1=CC=C2c1cccnc1	< 30%	1 to 50 min	–	≥ 80%	≤ 0.011 µM	–	–	1 to 10 min	–
C[C@]12CC[C@H]3[C@@H](CC[C@H]4CC(=O)CC[C@@]43C)C1=CC=C2n1ccnc1	< 30%	1 to 50 min	< 32%	≥ 80%	≤ 0.011 µM	–	–	–	–
C[C@]12CCNC(=O)C=C1CC[C@@H]1[C@@H]2CC[C@]2(C)C(c3cccnc3)=CC[C@@H]12	< 30%	1 to 10 min	–	≥ 80%	≤ 0.011 µM	–	–	1 to 10 min	–
Cc1cncc(C2=CC[C@H]3[C@@H]4CCC5=CC(=O)NCC[C@]5(C)[C@H]4CC[C@]23C)c1	≥ 30%	10 to 60 min	–	50 to 80%	≤ 0.011 µM	–	–	10 to 60 min	–
C[C@]12CC[C@H]3[C@@H](CCC4=CC(=O)NCC[C@@]43C)C1=CC=C2n1ccnc1	< 30%	≥ 50 min	–	≥ 80%	≤ 0.011 µM	–	–	10 to 60 min	–
C[C@]12CC[C@H]3[C@@H](CC[C@H]4CC(=O)NCC[C@@]43C)C1=CC=C2n1ccnc1	≥ 30%	1 to 50 min	–	≥ 80%	≤ 0.011 µM	–	–	–	–
C[C@]12CCNC(=O)C=C1CC[C@@H]1[C@@H]2CC[C@]2(C)C(n3ccnc3)=CC[C@@H]12	< 30%	≥ 50 min	–	≥ 80%	≤ 0.011 µM	–	–	10 to 60 min	≤ 0.015 µM
CN1CC[C@@]2(C)C(=CC1=O)CC[C@H]1C3=CC=C(n4ccnc4)[C@@]3(C)CC[C@@H]12	≥ 30%	≥ 50 min	–	≥ 80%	–	–	–	10 to 60 min	≤ 0.015 µM
C[C@]12CCNC(=O)C=C1CC[C@@H]1[C@@H]2CC[C@]2(C)C(c3cnccn3)=CC[C@@H]12	≥ 30%	1 to 10 min	–	≥ 80%	–	–	–	1 to 10 min	–
COc1cncc(C2=CC=C3[C@@H]4CCC5=CC(=O)N(C)CC[C@]5(C)[C@H]4CC[C@]23C)c1	≥ 30%	1 to 50 min	–	≥ 80%	≤ 0.011 µM	–	–	–	–
C[C@]12CCNC(=O)C=C1CC[C@@H]1[C@@H]2CC[C@]2(C)C(c3cncnc3)=CC[C@@H]12	≥ 30%	1 to 10 min	–	50 to 80%	–	–	–	1 to 10 min	–
CN1CC[C@@]2(C)C(=CC1=O)CCC1[C@@H]2CC[C@]2(C)C(c3cccnc3)=CC[C@@H]12 (single isomer, unassigned)	≥ 30%	10 to 60 min	–	50 to 80%	≤ 0.011 µM	–	–	10 to 60 min	–
